The results in this text go back to ChEMBL document CHEMBL4811216, “Chemotherapy for human schistosomiasis: how far have we come? What's new? Where do we go from here?” (RSC Med Chem, 2020).

A word on the EC50: it is the concentration needed to bring the measured effect to its halfway point. As a reminder, the mortality is the percentage killed. In general, IC50 refers to the midpoint of a concentration-inhibition curve.

The test system of experiment [1] is Schistosoma mansoni. The experiment in a line: Antischistosomal activity against female Schistosoma mansoni Egyptian strain infected in BALB/c mouse assessed as reduction in total worm burden at 200 mg/kg, po measured after 2 weeks by scanning electron microscopy. Details: scale not given: the % may be the effect or the level left. It is filed as functional.
For experiment [2], the system named is Schistosoma mansoni. The experiment is described as follows: Antischistosomal activity against female Schistosoma mansoni Egyptian strain infected in BALB/c mouse assessed as reduction in worm burden at 200 mg/kg, po measured after 2 weeks. Details: scale not given: the % may be the effect or the level left. It is filed as functional.
The subject of experiment [3] is Schistosoma mansoni. The experiment is described as follows: Antischistosomal activity against Schistosoma mansoni LE infected in BALB/c mouse assessed as reduction in worm burden at 10 mg/kg, ip administered for 5 consecutive days starting from day 23 by microscopic method relative to control. Details: scale not given: the % may be the effect or the level left. It is filed as functional.

Experiment [4] relates to Schistosoma mansoni. The experiment in a line: Antischistosomal activity against Schistosoma mansoni LE infected in BALB/c mouse assessed as reduction in worm burden at 10 mg/kg, ip administered for 5 consecutive days starting from day 1 post infection by microscopic method relative to control. It is filed as functional. Set-up: scale not given: the % may be the effect or the level left.

The subject of experiment [5] is Schistosoma mansoni. The experiment in a line: Antischistosomal activity against female Schistosoma mansoni Egyptian strain infected in BALB/c mouse assessed as reduction in male worm burden at 300 mg/kg, po measured after 2 weeks by scanning electron microscopy relative to control. It is filed as functional. Set-up: scale not given: the % may be the effect or the level left.

Experiment [6] concerns Schistosoma mansoni. The experiment in a line: Antischistosomal activity against female Schistosoma mansoni Egyptian strain infected in BALB/c mouse assessed as reduction in total worm burden at 300 mg/kg, po measured after 2 weeks by scanning electron microscopy relative to control. Details: scale not given: the % may be the effect or the level left. It counts as functional.

The test system of experiment [7] is Schistosoma mansoni. The experiment in a line: Antischistosomal activity against female Schistosoma mansoni Egyptian strain infected in BALB/c mouse assessed as reduction in female worm burden at 300 mg/kg, po measured after 2 weeks by scanning electron microscopy relative to control. It counts as functional. Details: scale not given: the % may be the effect or the level left.

Experiment [8] has as its system Schistosoma mansoni. The experiment is described as follows: Antischistosomal activity against adult Schistosoma mansoni LE assessed as worm mortality measured after 96 hrs by inverted microscopic method. It counts as functional, organism-based.
For experiment [9], the system named is Schistosoma mansoni. The experiment in a line: Antischistosomal activity against Schistosoma mansoni LE larva at […] measured within 48 hrs by inverted microscopic method relative to control. It counts as functional. The note with it: dose 2.5 µg/ml.
Experiment [10] relates to Schistosoma mansoni. The experiment in a line: Antischistosomal activity against adult Schistosoma mansoni LE assessed as worm mortality at 100 ug/ml measured after 96 hrs by inverted microscopic method relative to control. It is filed as functional.
Experiment [11] concerns Schistosoma mansoni. The experiment in a line: Antischistosomal activity against Schistosoma mansoni LE infected in BALb/C mouse assessed as reduction in worm burden at 400 mg/kg, po administered as single dose and measured after 15 days relative to control. It counts as functional. The note with it: time 15 day. Details: scale not given: the % may be the effect or the level left.

The subject of experiment [12] is Schistosoma mansoni. The experiment in a line: Schistosomicidal-activity against Schistosoma mansoni Puerto-Rican schistosomula incubated for 7 days by trypan blue dye-exclusion test. It counts as functional, organism-based. Conditions: 168 h.
In experiment [13] the test system is Schistosoma mansoni. The experiment in a line: Antischistosomal activity against Schistosoma mansoni Puerto-Rican infected in BALB/c mouse assessed as worm burden reduction at 300 mg/kg, po BID administered for 2 consecutive days by light microscopic method relative to control. It is filed as functional. Details: scale not given: the % may be the effect or the level left.

Experiment [14] deals with Schistosoma haematobium. The experiment is described as follows: Antischistosomal activity against adult Schistosoma haematobium assessed as reduction in worm viability at 100 uM measured after 4 hrs by microscopic method relative to control. It counts as functional.
In experiment [15] the test system is Schistosoma haematobium. The experiment is described as follows: Antischistosomal activity against adult Schistosoma haematobium assessed as reduction in worm viability at 100 uM measured after 48 hrs by microscopic method relative to control. It counts as functional.
The test system of experiment [16] is Schistosoma mansoni. The experiment is described as follows: Antischistosomal activity against adult Schistosoma mansoni measured after 72 hrs by microscopic method. It is filed as functional, organism-based.
The subject of experiment [17] is Schistosoma mansoni. The experiment in a line: Antischistosomal activity against Schistosoma mansoni infected in NMRI mouse assessed as worm burden reduction at 100 mg/kg, po administered as single dose relative to control. It is filed as functional. Set-up: scale not given: the % may be the effect or the level left.
The next experiment relates to L6. The experiment is described as follows: Cytotoxicity against rat L6 cells measured after 72 hrs by alamar blue assay. It is filed as functional, cell-based. The note with it: L6, 72 h. (In general: Alamar Blue is a resazurin reagent that responds to reducing activity.)
Experiment [18] deals with Schistosoma mansoni. The experiment is described as follows: Antischistosomal activity against Schistosoma mansoni Liberian infected in NMRI mouse assessed as worm burden reduction at 100 mg/kg, po measured after 14 days relative to control. Details: scale not given: the % may be the effect or the level left. It counts as functional. The note with it: time 14 day.
For experiment [19], the system named is Schistosoma haematobium. The experiment in a line: Antischistosomal activity against Schistosoma haematobium Egyptian infected in NMRI mouse assessed as worm burden reduction at 200 mg/kg, po measured after 14 days. It counts as functional. Set-up: scale not given: the % may be the effect or the level left. The note with it: time 14 day.
Experiment [20] relates to Schistosoma mansoni. The experiment is described as follows: Antischistosomal activity against Schistosoma mansoni BH infected in Balb/c mouse assessed as reduction in worm burden at 400 mg/kg, po measurement after 2 weeks. It is filed as functional. Set-up: scale not given: the % may be the effect or the level left.
The test system of experiment [21] is Schistosoma mansoni. The experiment in a line: Antischistosomal activity against Schistosoma mansoni NTS assessed as worm mortality at 10 uM measured up to 72 hrs by microscopic method relative to control. It is filed as functional. Conditions: time hrs <=72.
Experiment [22] has as its system Schistosoma mansoni. The experiment in a line: Antischistosomal activity against Schistosoma mansoni infected in NMRI mouse assessed as reduction in female worm burden at 400 mg/kg, po measured after 21 days relative to control. It counts as functional. Set-up: scale not given: the % may be the effect or the level left. Conditions: time 21 day.
In experiment [23] the test system is Schistosoma mansoni. The experiment is described as follows: Antischistosomal activity against adult Schistosoma mansoni assessed as worm mortality at 10 uM measured up to 72 hrs by microscopic method relative to control. The note with it: time hrs <=72. It is filed as functional.
The test system of experiment [24] is Schistosoma mansoni. The experiment is described as follows: Antischistosomal activity against Schistosoma mansoni infected in NMRI mouse assessed as reduction in total worm burden at 400 mg/kg, po measured after 21 days relative to control. It counts as functional. Set-up: scale not given: the % may be the effect or the level left. The note with it: time 21 day.

In experiment [25] the test system is Schistosoma mansoni. The experiment is described as follows: Antischistosomal activity against adult Schistosoma mansoni measured up to 72 hrs by microscopic method. It is filed as functional, organism-based.
Experiment [26] deals with Schistosoma japonicum. The experiment in a line: Antischistosomal activity against adult Schistosoma japonicum assessed as reduction in worm vitality at >10 uM incubated for 48 hrs relative to control. Conditions: dose microM >10. Details: scale not given: the % may be the effect or the level left. It is filed as functional.
Experiment [27] relates to Schistosoma japonicum. The experiment in a line: Antischistosomal activity against Schistosoma japonicum infected in ICR mouse assessed as total worm reduction at 250 mg/kg, po administered as single dose relative to control. It counts as functional. Details: scale not given: the % may be the effect or the level left.
Experiment [28] relates to Schistosoma japonicum. The experiment is described as follows: Antischistosomal activity against juvenile Schistosoma japonicum assessed as reduction in worm vitality at 25 uM incubated for 72 hrs relative to control. It is filed as functional. Set-up: scale not given: the % may be the effect or the level left.
Experiment [29] deals with Schistosoma mansoni. The experiment in a line: Antischistosomal activity against adult Schistosoma mansoni LE assessed as worm mortality at 100 ug/ml incubated for 24 hrs by inverted microscopic method relative to control. It is filed as functional.
The subject of experiment [30] is Schistosoma mansoni. The experiment is described as follows: Antischistosomal activity against Schistosoma mansoni LE schistosomula assessed as reduction in worm vitality measured every 24 hrs by inverted microscopy. It counts as functional, organism-based.
The subject of experiment [31] is Schistosoma mansoni. The experiment in a line: Antischistosomal activity against adult Schistosoma mansoni LE assessed as reduction in worm vitality measured every 24 hrs by inverted microscopy. It is filed as functional, organism-based.
Experiment [32] relates to Schistosoma japonicum. The experiment in a line: Antischistosomal activity against Schistosoma japonicum at 10 uM incubated for 72 hrs by inverted microscopic method relative to control. It is filed as functional.

Each structure is given as a SMILES string. Some results are limits rather than exact numbers.

Regarding `CC(C)Oc1ccc(-c2ccc(-c3nc4ccccc4[nH]3)s2)cc1`, the Activity turned out to be 44% in the experiment on Schistosoma mansoni [1]; 66% in the experiment on Schistosoma mansoni [2]; 55.3% with Schistosoma mansoni [3]; 34.6% in the experiment on Schistosoma mansoni [4]; 34.6% with Schistosoma mansoni [5]; 55.3% with Schistosoma mansoni [6]. For the same compound, in the experiment on Schistosoma mansoni [7], the Activity was 76.5%.

As to `O=C1c2ccccc2C(=O)N1Nc1nc(-c2ccc(Cl)cc2Cl)cs1`, the EC50 with Schistosoma mansoni [8] is 50.6 µM. The mortality at […] in the experiment with Schistosoma mansoni [9] was 100%. Also, in the experiment with Schistosoma mansoni [10], the mortality at 100 µg/mL turned out to be 100%. The Activity with Schistosoma mansoni [11] worked out at 85%.

For the compound `C1CCCCCC2(CCCCC1)OOCCCOO2`, the EC50 in the experiment on Schistosoma mansoni [12] turned out to be 0.016 µM. In addition, the Activity in the experiment on Schistosoma mansoni [13] turned out to be 63%.

Consider `CC(C)N(Cc1ccccc1)CC1CCc2cc(CCl)c([N+](=O)[O-])cc2N1` (stereo not drawn), for which the figures for the Activity in the experiment on Schistosoma haematobium [14], with Schistosoma haematobium [15] and in the experiment on Schistosoma mansoni [17] were 75%, 100% and 76.1%, respectively. For the same compound, the IC50 in the experiment on Schistosoma mansoni [16] was 11.1 µM; with L6, over 73 µM.

Regarding `OC(c1cc(-c2ccccc2)nc2c(Cl)cc(Cl)cc12)C1CCCCN1` (stereo not drawn), the Activity with Schistosoma mansoni [18] was 87%; in the experiment with Schistosoma haematobium [19] it was 100%.

On to `COc1cc(O)ccc1C(=O)/C=C/c1ccccc1`, for which the Activity in the experiment with Schistosoma mansoni [20] turned out to be 31.8%.

In the case of `CCNCCNc1cc(-c2ccc(Cl)cc2)c(C#N)c2nc3ccccc3n12`, the mortality at 10 µM in the experiment on Schistosoma mansoni [21] is over 70%; with Schistosoma mansoni [23], over 60%. In addition, the Activity in the experiment with Schistosoma mansoni [22] is given as 61.3%; with Schistosoma mansoni [24], 58.7%. Further, in the experiment with Schistosoma mansoni [25], the IC50 is 2.44 µM.

Regarding `O=C(C1CCCCC1)N1CC(=O)N2CCc3c(Br)cccc3C2C1` (stereo not drawn), the Activity in the experiment with Schistosoma japonicum [26] is given as 100%; with Schistosoma japonicum [27], 54.3%; in the experiment with Schistosoma japonicum [28] it was under 10%.

Consider `Cc1ccc(-c2cs/c(=N/N=C/CN3C(=O)c4ccccc4C3=O)[nH]2)cc1`, for which, in the experiment on Schistosoma mansoni [29], the mortality at 100 µg/mL is 100%. Besides, the figures for the EC50 in the experiment on Schistosoma mansoni [30] and in the experiment with Schistosoma mansoni [31] were 9.77 µM and 38.7 µM, respectively.

In the case of `CCCCCCCCCCOc1cc2c(O)c(C(=O)NCCN(CC)CC)cnc2cc1OCC`, the Activity in the experiment on Schistosoma japonicum [32] came out at 100%.
